Source: paper PMC9112895, “Selective Inhibition of Plasmodium falciparum ATPase 6 by Artemisinins and Identification of New Classes of Inhibitors after Expression in Yeast” (Antimicrobial Agents and Chemotherapy, 2022)

Key:
SERCA1a [1] = target: T1, SERCA1a (Oryctolagus cuniculus, UniProt P04191); experiment: Yeast whole-cell growth inhibition assay, K667::SERCA1a; format: cell-based, rabbit; set-up: containing the SERCA1a coding region from rabbit skeletal fast-twitch muscle; expressed in transfected cells; host or cells: Saccharomyces cerevisiae K667 and K667Δpdr5::HIS; settings: measured at 40 h
Description: (§1) Yeast transformations were performed using the method described by Gietz and Schiestl ([48]), and transformants were selected by an uracil auxotrophic marker. Transformations were confirmed by colony PCR. Both K667 and K667Δpdr5::HIS were transformed with the following plasmids: pUGpd plasmid as a vector-only control (derived from pRS316 [49]); br434 plasmid (derived from pRS316 [50]) containing the SERCA1a coding region from rabbit skeletal fast-twitch muscle (pbr434-SERCA1a); and pUGpd containing the yeast-optimized coding region of PfATP6 from Plasmodium falciparum (pUGpd-PfATP6). Site-directed mutagenesis was performed on the SERCA1a coding region to produce the mutation E255L in the protein. Mutations were also introduced into the PfATP6 coding region to produce mutations L263E, A623E, and S769N and the double mutation A623E/S769N ([13]).
The screening assay used here was developed from the protocol used by Pulcini et al. ([13]). […] The optimal calcium concentration was periodically monitored and, if necessary, adjusted using a calcium concentration range of 10 to 30 mM. […] The yeast growth was estimated from the absorbance at 620 nm in a Tecan plate reader. […] The data collected were analyzed using GraphPad Prism v9.0 (GraphPad software, San Diego, CA, U.S.A).

E255LSERCA1a = target: T2, E255LSERCA1a (Oryctolagus cuniculus, UniProt P04191, E255L); experiment: Yeast whole-cell growth inhibition assay, K667Δpdr5[SERCA1a]255L; format: cell-based, rabbit
T2 construct: expressed in transfected cells; host or cells: Saccharomyces cerevisiae K667Δpdr5
Description: The E255L mutation was introduced into SERCA1a using the following primers: forward, 5′-[…]-3′; reverse, 5′-[…]-3′. Site-directed mutagenesis was performed using the Agilent Quikchange Lightning site-directed mutagenesis kit, following the manufacturer’s instructions. Mutants were screened by Sanger sequencing (Eurofins, UK).
The screening assay used here was developed from the protocol used by Pulcini et al. ([13]). A single colony of the yeast strain to be screened was picked and grown in 5 mL of selective medium until stationary phase was reached. The culture was diluted 100-fold in ampicillin-supplemented yeast extract-peptone-dextrose (YPD) medium to an OD at 620 nm (OD620) equivalent to that of lag phase. YPD medium was supplemented with an appropriate concentration of calcium, depending on the transformed strain. The optimal calcium concentration for the PfATP6-expressing strain was 22 mM, and that for the SERCA1a-expressing strain was […]. The optimal calcium concentration was periodically monitored and, if necessary, adjusted using a calcium concentration range of 10 to 30 mM. […] The yeast growth was estimated from the absorbance at 620 nm in a Tecan plate reader. […] The data collected were analyzed using GraphPad Prism v9.0 (GraphPad software, San Diego, CA, U.S.A).

SERCA1a [2] = target: T1, SERCA1a; experiment: Yeast whole-cell growth inhibition assay, K667Δpdr5[SERCA1a]; format: cell-based, rabbit; set-up: containing the SERCA1a coding region from rabbit skeletal fast-twitch muscle; expressed in transfected cells; host or cells: Saccharomyces cerevisiae K667 and K667Δpdr5::HIS
Description: as §1
The screening assay used here was developed from the protocol used by Pulcini et al. ([13]). A single colony of the yeast strain to be screened was picked and grown in 5 mL of selective medium until stationary phase was reached. The culture was diluted 100-fold in ampicillin-supplemented yeast extract-peptone-dextrose (YPD) medium to an OD at 620 nm (OD620) equivalent to that of lag phase. YPD medium was supplemented with an appropriate concentration of calcium, depending on the transformed strain. The optimal calcium concentration for the PfATP6-expressing strain was 22 mM, and that for the SERCA1a-expressing strain was […]. The optimal calcium concentration was periodically monitored and, if necessary, adjusted using a calcium concentration range of 10 to 30 mM. A final volume of 200 μL of the yeast culture was added to each well of a 96-well plate, with 5 technical replicates included per inhibitor. All inhibitors were dissolved in dimethyl sulfoxide (DMSO) unless otherwise stated. […] The yeast growth was estimated from the absorbance at 620 nm in a Tecan plate reader. […] The data collected were analyzed using GraphPad Prism v9.0 (GraphPad software, San Diego, CA, U.S.A).

PfATP6 = PfATP6 (Plasmodium falciparum, UniProt Q08853); experiment: cell-based; format: cell-based; set-up: pUGpd containing the yeast-optimized coding region of PfATP6 from Plasmodium falciparum; expressed in transfected cells; host or cells: Saccharomyces cerevisiae K667 and K667Δpdr5::HIS; settings: growth inhibition, K667Δpdr5[PfATP6]
Description: The screening assay used here was developed from the protocol used by Pulcini et al. ([13]). A single colony of the yeast strain to be screened was picked and grown in 5 mL of selective medium until stationary phase was reached. The culture was diluted 100-fold in ampicillin-supplemented yeast extract-peptone-dextrose (YPD) medium to an OD at 620 nm (OD620) equivalent to that of lag phase. YPD medium was supplemented with an appropriate concentration of calcium, depending on the transformed strain. […] The optimal calcium concentration was periodically monitored and, if necessary, adjusted using a calcium concentration range of 10 to 30 mM. A final volume of 200 μL of the yeast culture was added to each well of a 96-well plate, with 5 technical replicates included per inhibitor. All inhibitors were dissolved in dimethyl sulfoxide (DMSO) unless otherwise stated. […] The 96-well plates were incubated at 30°C for 42 h. The yeast growth was estimated from the absorbance at 620 nm in a Tecan plate reader. Growth was normalized with the no-drug control to present data as percent growth. The data collected were analyzed using GraphPad Prism v9.0 (GraphPad software, San Diego, CA, U.S.A).

K667Δpdr5::pUGpd = experiment: Yeast whole-cell growth inhibition, vector-only control K667Δpdr5::pUGpd; format: cell-based, Saccharomyces cerevisiae; settings: compound screen
Description: The screening assay used here was developed from the protocol used by Pulcini et al. ([13]). A single colony of the yeast strain to be screened was picked and grown in 5 mL of selective medium until stationary phase was reached. The culture was diluted 100-fold in ampicillin-supplemented yeast extract-peptone-dextrose (YPD) medium to an OD at 620 nm (OD620) equivalent to that of lag phase. YPD medium was supplemented with an appropriate concentration of calcium, depending on the transformed strain. The optimal calcium concentration for the PfATP6-expressing strain was 22 mM, and that for the SERCA1a-expressing strain was […]. The optimal calcium concentration was periodically monitored and, if necessary, adjusted using a calcium concentration range of 10 to 30 mM. A final volume of 200 μL of the yeast culture was added to each well of a 96-well plate, with 5 technical replicates included per inhibitor. All inhibitors were dissolved in dimethyl sulfoxide (DMSO) unless otherwise stated. Stock solutions of each inhibitor were diluted 100-fold in each well to give the desired final concentration. […] The 96-well plates were incubated at 30°C for 42 h. The yeast growth was estimated from the absorbance at 620 nm in a Tecan plate reader. […] The data collected were analyzed using GraphPad Prism v9.0 (GraphPad software, San Diego, CA, U.S.A).

T1 sequence (P04191 other isoform, or with tags, fused parts or gaps): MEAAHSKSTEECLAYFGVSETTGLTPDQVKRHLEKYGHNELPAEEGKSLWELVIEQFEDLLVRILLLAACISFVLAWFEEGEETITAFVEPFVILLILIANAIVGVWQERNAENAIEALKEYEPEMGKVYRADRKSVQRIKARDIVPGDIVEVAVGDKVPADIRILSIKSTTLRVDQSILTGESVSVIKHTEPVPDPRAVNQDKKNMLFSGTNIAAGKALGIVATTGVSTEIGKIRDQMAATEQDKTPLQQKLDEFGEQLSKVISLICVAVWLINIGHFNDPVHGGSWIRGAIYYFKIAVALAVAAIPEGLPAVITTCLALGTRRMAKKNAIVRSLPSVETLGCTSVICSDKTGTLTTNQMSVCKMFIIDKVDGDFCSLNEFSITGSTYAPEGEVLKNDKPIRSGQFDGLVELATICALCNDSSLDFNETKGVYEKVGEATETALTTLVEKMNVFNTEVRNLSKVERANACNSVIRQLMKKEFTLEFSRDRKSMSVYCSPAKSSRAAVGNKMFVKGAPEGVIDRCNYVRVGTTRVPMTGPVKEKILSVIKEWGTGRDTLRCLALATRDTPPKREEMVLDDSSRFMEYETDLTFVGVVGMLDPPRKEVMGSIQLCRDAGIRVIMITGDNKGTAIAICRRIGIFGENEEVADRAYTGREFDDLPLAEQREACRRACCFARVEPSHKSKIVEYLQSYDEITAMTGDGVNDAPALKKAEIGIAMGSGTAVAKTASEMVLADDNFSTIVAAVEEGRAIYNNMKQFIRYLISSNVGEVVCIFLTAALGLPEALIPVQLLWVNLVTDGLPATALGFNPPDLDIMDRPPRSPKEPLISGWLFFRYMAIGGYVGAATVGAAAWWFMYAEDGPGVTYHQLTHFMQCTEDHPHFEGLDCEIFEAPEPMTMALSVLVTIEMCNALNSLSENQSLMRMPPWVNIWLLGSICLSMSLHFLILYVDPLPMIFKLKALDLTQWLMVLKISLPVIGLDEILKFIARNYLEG
T2 sequence (P04191 other isoform, or with tags, fused parts or gaps E255L): as the sequence (P04191 other isoform, or with tags, fused parts or gaps) above, with E255L counted along it
Sequence of PfATP6 (Q08853 whole entry): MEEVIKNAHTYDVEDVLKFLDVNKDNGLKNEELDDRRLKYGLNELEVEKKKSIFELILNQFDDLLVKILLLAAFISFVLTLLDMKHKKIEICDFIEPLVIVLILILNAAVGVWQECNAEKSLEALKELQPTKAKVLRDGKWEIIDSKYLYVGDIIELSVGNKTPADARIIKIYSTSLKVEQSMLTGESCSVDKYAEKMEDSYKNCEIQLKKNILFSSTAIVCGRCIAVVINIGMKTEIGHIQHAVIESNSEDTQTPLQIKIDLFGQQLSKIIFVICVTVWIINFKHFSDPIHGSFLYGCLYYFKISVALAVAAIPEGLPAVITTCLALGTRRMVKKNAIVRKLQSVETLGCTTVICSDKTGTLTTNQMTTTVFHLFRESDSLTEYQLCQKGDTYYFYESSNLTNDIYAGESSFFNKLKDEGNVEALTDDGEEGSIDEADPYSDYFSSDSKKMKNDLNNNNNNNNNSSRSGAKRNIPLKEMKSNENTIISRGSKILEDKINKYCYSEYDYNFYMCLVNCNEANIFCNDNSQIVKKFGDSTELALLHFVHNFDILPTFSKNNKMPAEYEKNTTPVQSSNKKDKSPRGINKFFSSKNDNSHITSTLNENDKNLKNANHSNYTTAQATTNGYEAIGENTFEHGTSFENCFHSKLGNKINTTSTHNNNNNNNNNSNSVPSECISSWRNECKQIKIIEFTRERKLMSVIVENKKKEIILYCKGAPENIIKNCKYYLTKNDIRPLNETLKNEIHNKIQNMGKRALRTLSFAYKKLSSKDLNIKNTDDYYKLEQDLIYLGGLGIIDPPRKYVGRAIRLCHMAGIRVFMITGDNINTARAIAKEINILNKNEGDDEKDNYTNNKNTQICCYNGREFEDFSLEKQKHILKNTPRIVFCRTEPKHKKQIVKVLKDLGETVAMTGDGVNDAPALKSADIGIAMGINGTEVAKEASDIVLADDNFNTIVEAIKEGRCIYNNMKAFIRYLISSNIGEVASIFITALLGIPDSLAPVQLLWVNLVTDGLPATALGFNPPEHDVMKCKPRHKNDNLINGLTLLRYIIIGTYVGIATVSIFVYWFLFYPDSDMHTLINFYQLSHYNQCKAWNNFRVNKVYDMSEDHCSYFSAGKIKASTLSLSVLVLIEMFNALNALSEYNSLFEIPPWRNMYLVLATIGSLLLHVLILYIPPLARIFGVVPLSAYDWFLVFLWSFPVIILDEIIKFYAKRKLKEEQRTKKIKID

In the case of C/C=C(/C)C(=O)O[C@H]1C(C)=C2[C@H]([C@@H]1OC(=O)CCCCCCC)[C@@](C)(OC(C)=O)C[C@H](OC(=O)CCC)[C@@]1(O)[C@H]2OC(=O)[C@@]1(C)O [thapsigargin], the IC50 (SERCA1a [1]) is reported as 335 ± 67.5 nM, the IC50 (E255LSERCA1a) is reported as 794 ± 247 nM and the “fold less sensitive, E255LSERCA1a versus wild-type” value (E255LSERCA1a) is reported as 5 fold. For the same compound, the “fold lower IC50 in K667DPDR5::SERCA1a than in K667::SERCA1a” value (SERCA1a [2]) was > 2 fold and the IC50 (SERCA1a [2]; K667DPDR5::SERCA1a (wild-type E255), measured at 40 h) was 142 ± 43.9 nM.

O=C(Nc1cccc(C(F)(F)F)c1)c1cc(Cl)ccc1O [MMV665807] was tested, and the “inhibition of PfATP6 in compound screen” value (PfATP6) was “highest reproducible potency”, the “inhibition of control strain K667Δpdr5::pUGpd” value (K667Δpdr5::pUGpd) was “almost no inhibition” and the “inhibition of control strain K667Δpdr5::SERCA1a” value (SERCA1a [2]; compound screen) was “almost no inhibition”.
